# From publication PMC10698726 (Molecular Pharmaceutics, 2023)
# Several values for one entry are separate records, joined by “and”; a condition that tells them apart may be missing. Identical values can stand only once. Like-named read-outs stand apart in the source and are kept apart here.
# Legend:
# [1] = target: T1, OCT3 (Homo sapiens, UniProt O75751); assay: Inhibition of model substrate uptake in OCT3-overexpressing HEK293 cells; assay type: cell-based; details: for IC50: read-out: IC50; for x-fold Stereoselectivity: ratio of the IC50 values of the two enantiomers of the drug
# T1 construct: expressed in transfected cells; host or cells: HEK293
# T1 sequence (O75751 1-556): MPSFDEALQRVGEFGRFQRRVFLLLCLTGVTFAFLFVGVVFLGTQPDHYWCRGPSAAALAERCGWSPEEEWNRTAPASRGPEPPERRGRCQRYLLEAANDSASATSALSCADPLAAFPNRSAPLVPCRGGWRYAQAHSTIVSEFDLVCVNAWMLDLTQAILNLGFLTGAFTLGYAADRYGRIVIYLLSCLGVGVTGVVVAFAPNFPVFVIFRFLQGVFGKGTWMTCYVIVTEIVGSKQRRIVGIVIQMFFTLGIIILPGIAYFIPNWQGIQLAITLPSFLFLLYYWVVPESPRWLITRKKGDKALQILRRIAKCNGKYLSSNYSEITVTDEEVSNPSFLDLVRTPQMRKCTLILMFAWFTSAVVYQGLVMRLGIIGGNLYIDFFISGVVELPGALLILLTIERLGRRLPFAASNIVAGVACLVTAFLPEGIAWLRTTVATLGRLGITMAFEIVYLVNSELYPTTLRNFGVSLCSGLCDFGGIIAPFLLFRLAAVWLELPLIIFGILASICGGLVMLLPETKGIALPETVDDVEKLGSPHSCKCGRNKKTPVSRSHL
# Protocol: (§1) All experiments were carried out in transporter-overexpressing HEK293 cells. OCT1-, OCT2-, NET-, DAT-, and SERT-overexpressing cells as well as the empty-vector transfected control cell line were generated as described earlier,[26]−[28] whereas the OCT3-overexpressing HEK293 cells were generous gift of from Drs. Koepsell and Gorbulev (University of Würzburg, Germany). All cells were cultivated in Dulbecco’s modified Eagle’s medium (DMEM) supplemented with 10% (v/v) FCS, penicillin (100 U/mL), and streptomycin (100 μg/mL) and kept in culture for no longer than 30 passages.
# (§2) As for the transport experiments, 300,000 HEK293 cells were plated in poly-D-lysine-coated 24-well plates 2 days ahead of the experiment. On every plate, two wells of empty vector (EV)-transfected cells were used as a control to account for the passive influx of the model substrate, and two wells of transporter-overexpressing cells were used to determine the noninhibited uptake of the model substrate. Cells were initially washed once with 37 °C HBSS+ and then incubated with 2 μM model substrate (0.2 μM for MPP^+ uptake by MATs) with and without 20 μM inhibitor for 5 min. For concentration-dependent inhibition experiments, the cells were incubated with increasing inhibitor concentrations. The incubation was terminated by aspiration of the buffer before cells were washed twice with ice-cold HBSS+ and lysed in 80% acetonitrile. Cell lysates were transferred into a black 96-well plate for the fluorescence measurement of ASP^+ or used for sample preparation for LC–MS/MS analysis. […] Fluorescence quantification was performed in technical duplicates.
# (§3) Transporter-mediated net uptake was calculated as the difference between uptake in transporter-overexpressing cells and that in the empty-vector-transfected control. […] Vmax is the maximum transport velocity, while Km is defined as the substance concentration that is required to reach half of vmax. The ratio of vmax over Km is termed intrinsic clearance Clint. For inhibition experiments, the transport activity was calculated by using the following equation [drawing 1]
# (§4) SubstrateEV refers to the passive uptake of model substrates into the control cells and substratenoninhibited is the uptake in transporter-overexpressing cells without the presence of any inhibitor. The percent inhibition values are then calculated as described in the following [drawing 2]
# (§5) For concentration inhibition experiments, the transporter activity was plotted against the log10 of inhibitor concentrations, and the data were fitted by the following equation to determine IC50 values [drawing 3]
# (§6) Y refers to the transporter activity, whereas Ymax is the maximum and Ymin is the minimal transporter activity. X is the log10 of inhibitor concentrations, IC50 is the half-maximal inhibitory concentration, and hill slope is the slope factor.
# [2] = target: T2, OCT2 (Homo sapiens, UniProt O15244); assay: in vitro; details: for selectivity ratio at 5 min: OCT2-overexpressing HEK293 cells; for IC50: IC50, OCT2, Table S5, 2 μM ASP+ as model substrate, 5 min
# T2 sequence (O15244 1-555): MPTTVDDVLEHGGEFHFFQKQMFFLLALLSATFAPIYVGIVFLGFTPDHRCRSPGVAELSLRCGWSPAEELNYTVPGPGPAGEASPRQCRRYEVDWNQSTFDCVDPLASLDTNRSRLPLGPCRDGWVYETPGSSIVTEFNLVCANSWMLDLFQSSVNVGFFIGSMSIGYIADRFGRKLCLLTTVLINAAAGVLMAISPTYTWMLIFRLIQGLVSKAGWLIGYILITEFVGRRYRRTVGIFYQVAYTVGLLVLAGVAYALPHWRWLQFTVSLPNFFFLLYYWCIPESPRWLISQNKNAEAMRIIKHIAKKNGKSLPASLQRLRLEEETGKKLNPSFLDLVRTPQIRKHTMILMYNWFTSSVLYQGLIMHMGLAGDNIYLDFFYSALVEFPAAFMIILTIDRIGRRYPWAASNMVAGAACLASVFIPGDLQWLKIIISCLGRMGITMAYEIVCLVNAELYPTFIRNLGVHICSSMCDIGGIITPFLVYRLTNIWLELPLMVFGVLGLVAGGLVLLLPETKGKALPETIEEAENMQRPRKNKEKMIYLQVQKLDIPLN
# Protocol: as §1, §2, §3, §4, §5, §6
# [3] = target: T3, OCT1 (Homo sapiens, UniProt O15245); assay: Inhibition of model substrate uptake in OCT1-overexpressing HEK293 cells; assay type: cell-based; set-up: expressed in transfected cells; host or cells: HEK293; details: for selectivity ratio at 5 min: OCT1-overexpressing HEK293 cells, pH 7.4, OCT1, ratio of the IC50 values of the two enantiomers of the drug, read-out: x-fold Stereoselectivity; for ASP+ inhibition [%]: OCT1, 20 μM inhibitor, 2 μM ASP+, 5 min, mean of three experiments
# T3 sequence (O15245 1-554): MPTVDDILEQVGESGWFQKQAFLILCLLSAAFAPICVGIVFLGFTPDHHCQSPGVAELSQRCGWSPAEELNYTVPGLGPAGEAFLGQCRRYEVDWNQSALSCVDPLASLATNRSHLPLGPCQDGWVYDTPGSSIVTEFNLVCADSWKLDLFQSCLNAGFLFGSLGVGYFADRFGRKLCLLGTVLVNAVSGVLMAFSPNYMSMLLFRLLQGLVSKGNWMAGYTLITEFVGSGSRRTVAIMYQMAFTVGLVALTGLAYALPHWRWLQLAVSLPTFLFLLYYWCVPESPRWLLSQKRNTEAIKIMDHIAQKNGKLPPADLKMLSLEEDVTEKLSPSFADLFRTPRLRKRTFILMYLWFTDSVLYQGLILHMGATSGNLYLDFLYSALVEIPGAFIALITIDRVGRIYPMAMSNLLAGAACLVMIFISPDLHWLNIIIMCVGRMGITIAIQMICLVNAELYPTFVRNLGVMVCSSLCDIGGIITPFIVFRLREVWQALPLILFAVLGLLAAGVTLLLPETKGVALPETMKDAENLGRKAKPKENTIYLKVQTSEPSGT
# Protocol: Koepsell and Gorbulev (University of Würzburg, Germany).
# Fluorescence quantification was performed in technical duplicates.
# [4] = HEK293, 5 min, read-out: (S)-Zolmitriptan inhibition [%], OCT3, 20 μM inhibitor, 2 μM (S)-zolmitriptan, 5 min
# [5] = HEK293, OCT3, 20 μM inhibitor, 2 μM ASP+, 5 min, read-out: ASP+ inhibition [%]
# [6] = HEK293, 5 min, read-out: (S)-Zolmitriptan inhibition [%]
# [7] = HEK293, 5 min, read-out: (S,S)-Ethambutol inhibition [%]
# [8] = OCT3, Table S5, 2 μM ASP+ or ethambutol as model substrate, 5 min
# [9] = OCT3, 20 μM inhibitor, 2 μM ASP+, 5 min
# [10] = OCT3, model substrate 2 μM (S)-zolmitriptan, 5 min
# [11] = OCT3, model substrate 2 μM (S,S)-ethambutol, 5 min
# [12] = OCT3, model substrate 2 μM N-ethyllidocaine, 5 min
# [13] = OCT3, 20 μM inhibitor, 2 μM (S,S)-ethambutol, 5 min
# [14] = OCT3, 20 μM inhibitor, 2 μM (S)-zolmitriptan, 5 min
# [15] = HEK293, 5 min, read-out: (S,S)-Ethambutol inhibition [%], OCT3, 20 μM inhibitor, 2 μM (S,S)-ethambutol, 5 min
# [16] = OCT2, ratio of the IC50 values of the two enantiomers of the drug
compound,measurement,setting,value
CCCNC[C@@H](O)COc1ccccc1C(=O)CCc1ccccc1 [(R)-Propafenone],inhibition at 20 µM,[1]; [4],53.6%
same,inhibition at 20 µM,[1]; [5],17.3%
COc1ccc(CCN(C)CCC[C@@](C#N)(c2ccc(OC)c(OC)c2)C(C)C)cc1OC [(S)-Verapamil],inhibition at 20 µM,[1]; [6],57.6%
same,inhibition at 20 µM,[1]; [7],70.7%
same,inhibition at 20 µM,[1]; [5],20.8%
C#CCN(C)C(C)Cc1ccccc1 (stereo not shown) [Deprenyl],x-fold Stereoselectivity,"[2]; human, pH 7.4",1.4 fold
CC(C)(C)NC[C@H](O)COc1nsnc1N1CCOCC1 [Timolol],selectivity ratio at 5 min,"[2]; human, pH 7.4",2
Cc1ccc(O)c([C@@H](CCN(C(C)C)C(C)C)c2ccccc2)c1 [(S)-Tolterodine],IC50,[2],130 nM
same,(S)-Zolmitriptan inhibition [%],[1],82.9
same,"(S,S)-Ethambutol inhibition [%]",[1],89.8
same,IC50,[1]; [8],25300 nM
same,ASP+ inhibition [%],[1]; [9],53.5% and 54%
same,IC50,[1]; [10],7000 nM
same,IC50,[1]; [11],6370 nM
same,IC50,[1]; [12],3100 nM
same,IC50,"[1]; OCT3, model substrate 2 μM famotidine, 5 min",2310 nM
CCCN[C@H]1CCc2nc(N)sc2C1 [Pramipexole],selectivity ratio at 5 min,"[2]; human, pH 7.4",4
same,selectivity ratio at 5 min,[3]; human,1.6
CNCC[C@@H](Oc1ccccc1C)c1ccccc1 [(R)-Tomoxetine],IC50,[2],6300 nM
same,inhibition at 20 µM,[1]; [4],33.2%
same,"(S,S)-Ethambutol inhibition [%]",[1]; [13],39.0%
same,ASP+ inhibition [%],[1]; [9],1.1%
Cc1ccc(O)c([C@H](CCN(C(C)C)C(C)C)c2ccccc2)c1 [(R)-Tolterodine],IC50,[2],200 nM
same,inhibition at 20 µM,[1]; [6],97.6%
same,IC50,[1]; [8],2300 nM
same,ASP+ inhibition [%],[1]; [9],94%
same,IC50,[1]; [10],570 nM
same,IC50,[1]; [11],390 nM
same,IC50,[1]; [12],230 nM
same,IC50,[1],170 nM
CCN[C@H](C)Cc1cccc(C(F)(F)F)c1 [(R)-Fenfluramine],inhibition at 20 µM,[1]; [6],55.9%
same,inhibition at 20 µM,[1]; [7],40.7%
same,inhibition at 20 µM,[1]; [5],7.6%
same,ASP+ inhibition [%],[3],38.4%
O=C1c2cccc3c2[C@H](CCC3)CN1[C@@H]1CN2CCC1CC2 [Palonosetron],stereoselectivity in the inhibition of OCT2 (in words),"[2]; ASP+ uptake, reduced inhibitor concentrations (Figure S4)",relevant stereoselectivity
same,selectivity ratio at 5 min,"[2]; human, pH 7.4",3.2
same,x-fold Stereoselectivity,[1]; OCT3,2.5 fold
CN(C)CCOC(C)(c1ccccc1)c1ccccn1 (stereo not shown) [Doxylamine],selectivity ratio at 5 min,[3]; human,1.4
CCCNC[C@H](O)COc1ccccc1C(=O)CCc1ccccc1 [(S)-Propafenone],(S)-Zolmitriptan inhibition [%],[1]; [14],62.0%
same,"(S,S)-Ethambutol inhibition [%]",[1]; [13],76.4%
same,ASP+ inhibition [%],[1]; [9],23.8%
CC(C)NC[C@@H](O)COc1ccc(CC(N)=O)cc1 [(R)-Atenolol],inhibition at 20 µM,[1]; [4],5.5%
same,inhibition at 20 µM,[1]; [15],0.9%
same,inhibition at 20 µM,[1]; [5],3.9%
CC(C)NC[C@H](O)COc1ccc(CC(N)=O)cc1 [(S)-Atenolol],inhibition at 20 µM,[1]; [4],-3.8%
same,inhibition at 20 µM,[1]; [15],2.9%
same,inhibition at 20 µM,[1]; [5],0.9%
CN(C)CCc1c[nH]c2ccc(C[C@H]3COC(=O)N3)cc12 [Zolmitriptan],x-fold Stereoselectivity,[1]; OCT3,25 fold
same,stereoselective inhibition of OCT3 (in words),"[1]; ethambutol and zolmitriptan as substrates, 20 μM inhibitor",stereoselective inhibition
C1CCN2C[C@@H]3C[C@@H](CN4CCCC[C@@H]34)[C@H]2C1 [(-)-Sparteine],(S)-Zolmitriptan inhibition [%],[1],11.0
same,"(S,S)-Ethambutol inhibition [%]",[1],20.7
same,ASP+ inhibition [%],[1]; [9],0.4%
CCN[C@@H](C)Cc1cccc(C(F)(F)F)c1 [(S)-Fenfluramine],(S)-Zolmitriptan inhibition [%],[1],51.9%
same,"(S,S)-Ethambutol inhibition [%]",[1],40.7%
same,ASP+ inhibition [%],[1]; [9],12.7%
same,ASP+ inhibition [%],[3],41.9%
same,Sumatriptan inhibition [%],"[3]; human, pH 7.4",87.1%
OCC(O)CN1CCN(c2ccccc2)CC1 (stereo not shown) [Dropropizine],x-fold Stereoselectivity,[2]; [16],1.4 fold
COc1ccc(CCN(C)CCC[C@](C#N)(c2ccc(OC)c(OC)c2)C(C)C)cc1OC [(R)-Verapamil],inhibition at 20 µM,[1]; [6],42.1%
same,inhibition at 20 µM,[1]; [7],48.9%
same,inhibition at 20 µM,[1]; [5],8.2%
CNCC[C@H](Oc1ccccc1C)c1ccccc1 [(S)-Tomoxetine],IC50,[2],17100 nM
same,(S)-Zolmitriptan inhibition [%],[1]; [14],21.1%
same,"(S,S)-Ethambutol inhibition [%]",[1]; [13],-5.7%
same,ASP+ inhibition [%],[1]; [9],-8.3%
CCN1CCCC1CNC(=O)c1cc(S(=O)(=O)CC)c(N)cc1OC (stereo not shown) [Amisulpride],difference between enantiomers in the inhibition of OCT2 (in words),"[2]; ASP+ screening, 20 μM inhibitor",noticeable differences
same,x-fold Stereoselectivity,[2]; [16],3.2 fold
